# According to paper PMC8624998, “Synthesis and Antiproliferative Evaluation of 3-Chloroazetidin-2-ones with Antimitotic Activity: Heterocyclic Bridged Analogues of Combretastatin A-4” (Pharmaceuticals, 2021):
# Read-outs that look alike come from different tables or passages of the source. Marks after values point to notes of the source that are not given here.
# Experiments:
# [1] = test system: SW480 cells; assay: Cell viability assay, antiproliferative activity; format: cell-based, human; conditions: SW480, 10 μM
# Protocol: […]. The corresponding values for 10e in these cell lines were 161 nM (HL-60), 55 nM (SW480) and 135 nM (HT-29). […] […]. SW480 colon cells expressed low levels of the UDP-glucuronosyltransferase (UGT) protein compared to expression levels in HT-29 cells. […] […].
# (§1) The human breast carcinoma cell line MCF-7 was purchased from the European Collection of Animal Cell Cultures (ECACC). Triple negative breast cancer Hs578T cells and its invasive variant Hs578Ts(i)8 were a kind gift from Dr. Susan McDonnell, School of Chemical and Bioprocess Engineering, University College Dublin. U266 cells were a gift from Dr. Tony McElligott, School of Medicine, St James’s Hospital, Trinity College Dublin. HT-29 cells were purchased from the European Collection of Cell Cultures (originating from a human adenocarcinoma of the colon). The human breast carcinoma cell line MDA-MB-231 and the HL-60 cells derived from a patient with acute myeloid leukaemia were both obtained from ECACC (Salisbury, UK). The SW-480 cells were a kind gift from Dr. Brian Flood, School of Biochemistry and Immunology, Trinity College Dublin. HEK-293T (normal epithelial embryonic kidney cells) were cultured in Dulbecco’s Modified Eagle’s Medium (DMEM) with GlutaMAXTM-I in the absence of non-essential amino acids. Human breast cancer MCF-7 cells and multiple myeloma U266 cells were cultured in Minimum Essential Media (MEM) with GlutaMAX™-I, supplemented with 1% (v/v) non-essential amino acids, 10% 2(v/v) foetal bovine serum (FBS) and 1% (v/v) penicillin/streptomycin 5000 U/mL. MDA-MB-231 cells were maintained in DMEM supplemented with 10% (v/v) foetal bovine serum, 2 mM L-glutamine and 100 μg/mL penicillin/streptomycin (complete medium). Colon cancer HT-29 and SW-480 and triple negative breast cancer Hs578T and its invasive variant Hs578T8i were cultured in DMEM with GlutaMAX™-I, with the same supplement in the absence of non-essential amino acids. Leukaemia HL-60 cancer cells were cultured in Roswell Park Memorial Institute Media (RPMI-1640) with GlutaMAX™-I, supplemented with 10% FCS media, and 100 μg/mL penicillin/streptomycin as above. Cell numbers were monitored using a haemocytometer. Cell culture flasks were incubated in a humidified incubator (5% CO2/95% air) at 37 °C. All cell lines were sub-cultured three times per week with trypsinisation using TrypLE Express (1X) required for adherent cell lines.
# (§2) . All stock solutions and serial dilution in ethanol/DMSO were stored at -20 °C. All cells were seeded at a density of 2.5 × 10^4 cells/mL in a 96-well plate (200 μL per well). The cells were incubated in a […] atmosphere at 37 °C for 24 h, then treated with test compound (2 μL of stock solutions per 200-microlitre well) in ethanol to obtain a concentration range of 1 nM–200 μM for the study. The plates were then re-incubated for a further 72 h. Control wells contained an equivalent volume of the vehicle ethanol or DMSO (1% v/v). MTT cell viability assay: The culture medium was removed, and the cells were washed with phosphate buffered saline (PBS, […]). MTT (dissolved in PBS, […]) was added to obtain a final concentration of MTT (1 mg/mL). Cells were incubated at 37 °C for 3 h in the dark. Solubilisation was commenced by the addition of DMSO ([…]) and the cells were maintained at 20 °C in the dark for 20 min before reading the absorbance to ensure complete colour diffusion. The absorbance value of control cells (no added compound) was set to 100% cell viability and absorbance versus cell density per well was determined to assess cell viability using Graph-Pad Prism software. AlamarBlue cell viability assay: Cells were seeded in 96-well plates (e.g., MCF-7, 5 × 10^3 cells/well) and (HT-29 cells, 1 × 10^3 cells/well) and (HL-60 cells, 1 × 10^4 cells/well) with a total volume per well of 200 µL. After 24 h, cells were treated in triplicate with serial dilutions of CA-4 or β-lactam analogues (0.001–100 μM), medium alone or vehicle (1% ethanol (v/v)). […]
# [2] = test system: MCF-7 cells; assay: Cell viability assay (MTT/AlamarBlue), antiproliferative activity; format: cell-based, human; conditions: MCF-7, 72 h; for IC50: read-out: IC50 (MCF-7, 72 h)
# Text: […]. The introduction of the halogen substituent at C-3 was examined in an effort to investigate the effect on the activity of this substituent, and subsequently optimising the cytotoxic effects against MCF-7 human breast cancer cells.
# as §1, §2
# [3] = test system: MCF-7 cells; assay: Lactate dehydrogenase (LDH) assay for cytotoxicity; format: cell-based; conditions: Homo sapiens, MCF7; MCF-7, compound concentration 10 μM, 24 h; read-out: Lactate Dehydrogenase assay: % cell lysis (cell death)
# Protocol: The toxicity and selectivity of 10n towards normal cells was investigated in the non-tumourigenic cell line HEK-293T (normal human epithelial embryonic kidney cells). […] The cytotoxic effect of selected 3-chloro-β-lactams 10e, 10f, 10i, 10n and 3,3-dichloro-β-lactams 11e and 11n in MCF-7 cells was initially determined using the lactate dehydrogenase (LDH) assay.
# The cytotoxicity of selected compounds was determined using the CytoTox 96 non-radioactive cytotoxicity assay (Promega Corporation, Madison, WI, USA). Briefly, MCF-7 cells were seeded in a 96-well plate (200 μL per well), at a density of 2.5 × 10^4 cells/mL, and incubated for 24 h. The cells were then treated with selected β-lactam compounds as described above for the cell viability assay. […] Supernatant (50 μL) was removed from each well to a 96-well plate. Reconstituted ‘CytoTox 96® Reagent (50 μL) was added to each well and the plate was placed in the dark at 20 °C for 30 min. ‘Stop solution’ (50 μL) was added to each well and the samples were analysed at 490 nm using a Dynatech MR5000 plate reader. The percentage cell death at 10 μM was calculated.
# [4] = test system: MCF-7 cells; conditions: MCF-7, 72 h, previously reported compounds, cited from earlier work
# [5] = test system: MDA-MB-231 cells; assay: Cell viability assay, antiproliferative activity; format: cell-based; conditions: Homo sapiens; MDA-MB-231, 72 h; 10e and 11n results from NCI; read-out: Antiproliferative Activity IC50 MDA-MB-231, 72 h
# Text: Selected β-lactam compounds were next evaluated in the triple negative cell line MDA-MB-231 (Table 4). […] These cancers are difficult to treat since they are generally not responsive to hormone therapies such as the selective oestrogen receptor modulator (SERM) tamoxifen, or aromatase inhibitors such as anastrozole, or to the monoclonal antibody Herceptin, which targets the HER2 receptor. There are fewer treatment options available for TNBC compared with ER+, PR+ and HER2+ breast cancers and the prognosis is poorer. […]. The human breast carcinoma cell line MCF-7 was purchased from the European Collection of Animal Cell Cultures (ECACC). Triple negative breast cancer Hs578T cells and its invasive variant Hs578Ts(i)8 were a kind gift from Dr. Susan McDonnell, School of Chemical and Bioprocess Engineering, University College Dublin. U266 cells were a gift from Dr. Tony McElligott, School of Medicine, St James’s Hospital, Trinity College Dublin. HT-29 cells were purchased from the European Collection of Cell Cultures (originating from a human adenocarcinoma of the colon). The human breast carcinoma cell line MDA-MB-231 and the HL-60 cells derived from a patient with acute myeloid leukaemia were both obtained from ECACC (Salisbury, UK). The SW-480 cells were a kind gift from Dr. Brian Flood, School of Biochemistry and Immunology, Trinity College Dublin. HEK-293T (normal epithelial embryonic kidney cells) were cultured in Dulbecco’s Modified Eagle’s Medium (DMEM) with GlutaMAXTM-I in the absence of non-essential amino acids. Human breast cancer MCF-7 cells and multiple myeloma U266 cells were cultured in Minimum Essential Media (MEM) with GlutaMAX™-I, supplemented with 1% (v/v) non-essential amino acids, 10% 2(v/v) foetal bovine serum (FBS) and 1% (v/v) penicillin/streptomycin 5000 U/mL. MDA-MB-231 cells were maintained in DMEM supplemented with 10% (v/v) foetal bovine serum, 2 mM L-glutamine and 100 μg/mL penicillin/streptomycin (complete medium). Colon cancer HT-29 and SW-480 and triple negative breast cancer Hs578T and its invasive variant Hs578T8i were cultured in DMEM with GlutaMAX™-I, with the same supplement in the absence of non-essential amino acids. Leukaemia HL-60 cancer cells were cultured in Roswell Park Memorial Institute Media (RPMI-1640) with GlutaMAX™-I, supplemented with 10% FCS media, and 100 μg/mL penicillin/streptomycin as above. Cell numbers were monitored using a haemocytometer. Cell culture flasks were incubated in a humidified incubator (5% CO2/95% air) at 37 °C. All cell lines were sub-cultured three times per week with trypsinisation using TrypLE Express (1X) required for adherent cell lines.
# as §2, with “software.” for “software. AlamarBlue cell viability assay: Cells were seeded in 96-well plates (e.g., MCF-7, 5 × 10^3 cells/well) and (HT-29 cells, 1 × 10^3 cells/well) and (HL-60 cells, 1 × 10^4 cells/well) with a total volume per well of 200 µL. After 24 h, cells were treated in triplicate with serial dilutions of CA-4 or β-lactam analogues (0.001–100 μM), medium alone or vehicle (1% ethanol (v/v)).”
compound,measurement,setting,value
"CCOc1ccc(C2C(Br)C(=O)N2c2cc(OC)c(OC)c(OC)c2)cc1 (stereo not shown) [Compound 16b, 3-Bromo-4-(4-ethoxyphenyl)-1-(3,4,5-trimethoxyphenyl)azetidin-2-one]",SW480 inhibition of cell viability,[1],50%
same,IC50,"[2]; Homo sapiens, MCF7, 72 h",1140 ± 300 nM
"COc1ccc(C(=O)c2cc(OC)c(OC)c(OC)c2)cc1O [Compound 3a, phenstatin, reference compound]",cytotoxicity at 10 µM,[3],12%
COc1ccc(C2C(Cl)C(=O)N2c2cc(OC)c(OC)c(OC)c2)cc1Cl (stereo not shown) [Compound 10o],IC50,[4]; footnote h,433 ± 50 nM
"COc1ccc(C2C(Br)C(=O)N2c2cc(OC)c(OC)c(OC)c2)cc1O (stereo not shown) [Compound 16j, 3-Bromo-4-(3-hydroxy-4-methoxyphenyl)-1-(3,4,5-trimethoxyphenyl) azetidin-2-one]",SW480 inhibition of cell viability,[1],48%
same,inhibition of cell viability at a concentration of 10 μM,[2]; 10 μM,"40% (10 μM) ^c,i"
COc1cc(N2C(=O)C(Cl)C2c2ccc(SC)cc2)cc(OC)c1OC (stereo not shown) [Compound 10i],IC50,[4]; footnote g,73 ± 4 nM
same,cytotoxicity at 10 µM,[3],3%
COc1cc(N2C(=O)C(Cl)(Cl)C2c2ccc(SC)cc2)cc(OC)c1OC (stereo not shown) [Compound 11i],IC50,[4]; footnote g,291 ± 30 nM
CCOc1ccc([C@H]2[C@H](Cl)C(=O)N2c2cc(OC)c(OC)c(OC)c2)cc1 (relative stereo) [Compound 10f],IC50,[4]; footnote g,130 ± 17 nM
same,IC50,[5],78 ± 8 nM
same,cytotoxicity at 10 µM,[3],4%
"COc1ccc(C2N(c3cc(OC)c(OC)c(OC)c3)C(=O)C2(Cl)Cl)cc1[N+](=O)[O-] (stereo not shown) [Compound 11m, 3,3-Dichloro-4-(4-methoxy-3-nitrophenyl)-1-(3,4,5-trimethoxyphenyl) azetidin-2-one]",melting point,,117 to 119 °C
same,IC50,"[2]; Homo sapiens, MCF7, 72 h",353 ± 40 nM
"COc1cc(N2C(=O)C(Cl)(Cl)C2c2ccc(Cl)cc2)cc(OC)c1OC (stereo not shown) [Compound 11b, 3,3-Dichloro-4-(4-chlorophenyl)-1-(3,4,5-trimethoxyphenyl)azetidin-2-one]",melting point,,150 to 153 °C
same,IC50,"[2]; Homo sapiens, MCF7, 72 h",12800 ± 1080 nM
COc1ccc(C2N(c3cc(OC)c(OC)c(OC)c3)C(=O)C2(Cl)Cl)cc1C (stereo not shown) [Compound 11o],IC50,[4]; footnote h,747 ± 60 nM
"COc1ccc(N2C(=O)C(Cl)(Cl)C2c2cc(OC)c(OC)c(OC)c2)cc1 (stereo not shown) [Compound 13a, 3,3-Dichloro-4-(3,4,5-trimethoxyphenyl)-1-(4-methoxyphenyl)azetidin-2-one]",melting point,,64 to 66 °C
same,IC50,"[2]; Homo sapiens, MCF7, 72 h",45900 ± 6730 nM
"COc1cc(N2C(=O)C(Cl)C2c2cccc3ccccc23)cc(OC)c1OC (stereo not shown) [Compound 10j, 3-Chloro-1-(3,4,5-trimethoxyphenyl)-4-(naphthalen-1-yl)azetidin-2-one]",IC50,"[2]; Homo sapiens, MCF7, 72 h",14700 ± 2260 nM
same,cytotoxicity at 10 µM,[3],4%
"COc1cc(N2C(=O)C(Cl)(Cl)C2c2cccc3ccccc23)cc(OC)c1OC (stereo not shown) [Compound 11j, 3,3-Dichloro-1-(3,4,5-trimethoxyphenyl)-4-(naphthalen-1-yl)azetidin-2-one]",melting point,,146 to 148 °C
same,IC50,"[2]; Homo sapiens, MCF7, 72 h",7990 ± 700 nM
"COc1cc(N2C(=O)C(Cl)C2c2ccc3ccccc3c2)cc(OC)c1OC (stereo not shown) [Compound 10k, 3-Chloro-1-(3,4,5-trimethoxyphenyl)-4-(naphthalen-2-yl)azetidin-2-one]",IC50,[5],205 ± 34 nM
same,IC50,"[2]; Homo sapiens, MCF7, 72 h",200 nM
same,IC50,[2],202 ± 15 nM
CCOc1ccc([C@@H]2N(c3cc(OC)c(OC)c(OC)c3)C(=O)C2(Cl)Cl)cc1 [Compound 11f],IC50,[4]; footnote g,164 ± 15 nM
same,IC50,[5],389 ± 50 nM
